In patent US9340590B2 (priority 2011, dated 2016):
Read-outs that look alike come from different tables or passages of the source. Positions of bridges follow the written chain, without caps; N, C: chain ends. Non-standard residues stand in square brackets, D forms with d. Residues, ends and D or L forms follow the SMILES beside them. *: point of attachment. Biotin = O=C1N[C@H]2[C@H](CS[C@H]2CCCCC(=O)*)N1; Abu = CC[C@H](N)C(=O)O; Ahx = NCCCCCC(=O)O

Key:
Experiment in all cases: cell-based
hNav1.7 [1] = biological target: T1, hNav1.7 (Homo sapiens, UniProt Q15858); conditions: for IC50: read-out: Nav1.7 Use IC50
hNav1.7 [2] = biological target: T1, hNav1.7; assay type: cell-based; conditions: IonWorks Quattro, use-dependent block, hNav1.7; read-out: IWQ Use Nav1.7
hNav1.5 = hNav1.5 (Homo sapiens, UniProt Q14524); conditions: IonWorks Quattro, use-dependent block, hNav1.5; read-out: IWQ Use Nav1.5
hNav1.3 = hNav1.3 (Homo sapiens, UniProt Q9NY46); conditions: IonWorks Quattro, use-dependent block, hNav1.3; read-out: IWQ Use Nav1.3
Sequence of hNav1.3 (Q9NY46 whole entry, looked up): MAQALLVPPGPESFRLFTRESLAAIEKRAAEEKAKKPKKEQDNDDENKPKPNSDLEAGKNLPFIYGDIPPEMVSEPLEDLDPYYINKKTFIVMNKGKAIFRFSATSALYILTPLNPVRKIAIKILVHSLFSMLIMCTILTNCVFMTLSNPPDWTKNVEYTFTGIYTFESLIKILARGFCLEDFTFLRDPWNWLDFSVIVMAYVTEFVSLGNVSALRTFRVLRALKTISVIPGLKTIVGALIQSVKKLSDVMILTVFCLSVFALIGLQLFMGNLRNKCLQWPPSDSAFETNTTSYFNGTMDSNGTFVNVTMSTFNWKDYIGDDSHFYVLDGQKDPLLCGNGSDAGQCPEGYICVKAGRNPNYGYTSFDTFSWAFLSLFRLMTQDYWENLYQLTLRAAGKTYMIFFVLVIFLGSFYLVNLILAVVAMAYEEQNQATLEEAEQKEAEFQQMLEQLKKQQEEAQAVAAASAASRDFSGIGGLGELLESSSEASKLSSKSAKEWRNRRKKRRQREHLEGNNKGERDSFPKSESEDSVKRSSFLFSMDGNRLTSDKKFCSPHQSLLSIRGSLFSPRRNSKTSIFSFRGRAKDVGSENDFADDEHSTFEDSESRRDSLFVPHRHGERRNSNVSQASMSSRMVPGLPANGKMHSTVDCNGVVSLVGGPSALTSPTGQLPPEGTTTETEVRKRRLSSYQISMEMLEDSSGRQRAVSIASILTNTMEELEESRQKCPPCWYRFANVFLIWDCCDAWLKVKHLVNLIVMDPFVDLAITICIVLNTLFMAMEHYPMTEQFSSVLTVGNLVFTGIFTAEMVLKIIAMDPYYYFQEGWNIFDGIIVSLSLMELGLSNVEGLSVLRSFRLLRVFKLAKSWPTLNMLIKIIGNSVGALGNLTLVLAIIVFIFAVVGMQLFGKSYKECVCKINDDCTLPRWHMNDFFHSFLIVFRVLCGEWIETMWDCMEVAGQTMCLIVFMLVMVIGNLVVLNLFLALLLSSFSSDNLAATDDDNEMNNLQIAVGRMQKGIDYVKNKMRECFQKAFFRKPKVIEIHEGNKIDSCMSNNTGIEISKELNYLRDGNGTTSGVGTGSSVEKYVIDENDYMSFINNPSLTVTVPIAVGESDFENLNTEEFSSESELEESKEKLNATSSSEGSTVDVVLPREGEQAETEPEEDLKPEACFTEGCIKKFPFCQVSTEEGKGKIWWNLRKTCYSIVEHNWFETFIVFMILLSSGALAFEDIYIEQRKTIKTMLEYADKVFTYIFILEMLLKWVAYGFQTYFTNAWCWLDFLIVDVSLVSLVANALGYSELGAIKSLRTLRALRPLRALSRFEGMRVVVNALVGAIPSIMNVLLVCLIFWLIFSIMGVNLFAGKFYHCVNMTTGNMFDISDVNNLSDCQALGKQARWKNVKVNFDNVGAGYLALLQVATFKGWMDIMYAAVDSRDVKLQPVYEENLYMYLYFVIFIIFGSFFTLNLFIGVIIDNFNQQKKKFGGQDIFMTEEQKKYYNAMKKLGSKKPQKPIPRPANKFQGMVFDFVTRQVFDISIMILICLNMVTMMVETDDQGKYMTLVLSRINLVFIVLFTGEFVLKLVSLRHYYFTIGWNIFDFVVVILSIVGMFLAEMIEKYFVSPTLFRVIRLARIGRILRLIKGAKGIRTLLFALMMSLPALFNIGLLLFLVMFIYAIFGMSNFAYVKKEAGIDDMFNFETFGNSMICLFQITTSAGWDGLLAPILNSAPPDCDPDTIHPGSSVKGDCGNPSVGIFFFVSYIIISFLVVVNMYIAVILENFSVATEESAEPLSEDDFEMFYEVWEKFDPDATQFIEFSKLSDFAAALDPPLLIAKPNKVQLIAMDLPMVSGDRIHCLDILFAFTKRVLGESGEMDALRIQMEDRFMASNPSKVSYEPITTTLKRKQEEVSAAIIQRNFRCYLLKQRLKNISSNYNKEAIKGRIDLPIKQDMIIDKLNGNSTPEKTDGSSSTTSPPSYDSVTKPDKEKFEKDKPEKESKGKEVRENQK

T1 sequence (Q15858 whole entry, looked up): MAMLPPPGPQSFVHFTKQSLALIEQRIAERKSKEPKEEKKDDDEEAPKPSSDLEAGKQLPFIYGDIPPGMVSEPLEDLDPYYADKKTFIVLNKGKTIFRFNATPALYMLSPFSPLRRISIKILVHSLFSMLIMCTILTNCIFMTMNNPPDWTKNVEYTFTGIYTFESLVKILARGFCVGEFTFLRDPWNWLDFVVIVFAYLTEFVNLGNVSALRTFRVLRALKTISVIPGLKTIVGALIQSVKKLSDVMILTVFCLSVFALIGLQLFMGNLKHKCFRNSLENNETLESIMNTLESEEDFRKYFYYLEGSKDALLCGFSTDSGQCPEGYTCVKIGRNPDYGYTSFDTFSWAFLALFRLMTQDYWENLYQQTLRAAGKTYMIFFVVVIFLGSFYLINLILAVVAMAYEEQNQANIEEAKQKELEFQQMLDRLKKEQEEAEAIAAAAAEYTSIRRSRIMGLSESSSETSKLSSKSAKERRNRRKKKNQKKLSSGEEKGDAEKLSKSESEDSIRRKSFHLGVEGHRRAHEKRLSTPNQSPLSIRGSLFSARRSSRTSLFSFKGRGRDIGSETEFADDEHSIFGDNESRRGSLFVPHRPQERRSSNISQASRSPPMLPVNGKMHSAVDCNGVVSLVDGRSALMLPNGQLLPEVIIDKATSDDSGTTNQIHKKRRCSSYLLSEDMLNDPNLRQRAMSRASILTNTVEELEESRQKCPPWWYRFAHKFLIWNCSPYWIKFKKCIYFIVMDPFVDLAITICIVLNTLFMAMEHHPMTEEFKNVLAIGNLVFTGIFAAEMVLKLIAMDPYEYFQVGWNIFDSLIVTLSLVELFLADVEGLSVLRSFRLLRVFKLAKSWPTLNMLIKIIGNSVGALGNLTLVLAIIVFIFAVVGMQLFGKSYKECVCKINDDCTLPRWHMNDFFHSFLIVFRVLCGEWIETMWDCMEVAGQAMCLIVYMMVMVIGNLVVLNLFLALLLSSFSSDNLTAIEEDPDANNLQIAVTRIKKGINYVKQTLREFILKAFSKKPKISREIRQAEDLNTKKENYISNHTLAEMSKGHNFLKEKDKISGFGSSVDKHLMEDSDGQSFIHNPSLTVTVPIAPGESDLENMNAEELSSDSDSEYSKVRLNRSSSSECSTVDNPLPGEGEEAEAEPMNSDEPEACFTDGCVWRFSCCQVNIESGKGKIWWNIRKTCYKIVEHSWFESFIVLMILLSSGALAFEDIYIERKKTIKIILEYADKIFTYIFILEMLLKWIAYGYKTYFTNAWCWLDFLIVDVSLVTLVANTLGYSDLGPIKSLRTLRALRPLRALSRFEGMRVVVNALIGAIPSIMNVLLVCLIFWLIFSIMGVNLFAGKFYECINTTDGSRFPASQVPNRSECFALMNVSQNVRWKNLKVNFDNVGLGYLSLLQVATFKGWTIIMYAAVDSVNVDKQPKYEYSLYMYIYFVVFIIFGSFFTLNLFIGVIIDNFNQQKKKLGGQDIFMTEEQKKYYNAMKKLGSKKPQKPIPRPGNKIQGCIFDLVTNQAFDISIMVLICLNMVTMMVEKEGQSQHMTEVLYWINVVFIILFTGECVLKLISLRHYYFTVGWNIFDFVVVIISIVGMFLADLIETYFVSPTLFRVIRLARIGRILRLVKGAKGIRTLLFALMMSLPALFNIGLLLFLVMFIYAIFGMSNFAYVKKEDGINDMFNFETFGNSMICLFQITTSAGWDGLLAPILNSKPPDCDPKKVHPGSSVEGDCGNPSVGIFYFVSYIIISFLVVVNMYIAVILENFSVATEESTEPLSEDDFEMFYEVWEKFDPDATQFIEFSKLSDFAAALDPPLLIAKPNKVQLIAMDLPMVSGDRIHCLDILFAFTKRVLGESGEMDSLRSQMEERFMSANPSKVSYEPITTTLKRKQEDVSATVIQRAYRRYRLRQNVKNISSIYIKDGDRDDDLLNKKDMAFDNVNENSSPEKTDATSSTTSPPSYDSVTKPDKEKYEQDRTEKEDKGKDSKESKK

| SMILES | Nav1.4/Nav1.7 Use (hNav1.7 [1]) | Nav1.5/Nav1.7 Use (hNav1.7 [1]) | IC50 (hNav1.7 [1]) | IC50 (hNav1.7 [2]) | IC50 (hNav1.5) | IC50 (hNav1.3) |
| --- | --- | --- | --- | --- | --- | --- |
| CC[C@@H]1NC(=O)CNC(=O)[C@H](CC(C)C)NC(=O)[C@@H](NC(=O)[C@H](CC(=O)O)NC(=O)CCCCCNC(=O)CCCC[C@@H]2SC[C@@H]3NC(=O)N[C@@H]32)CSSC[C@@H]2NC(=O)[C@@H]3CSSC[C@@H](C(=O)N[C@@H](CCCCN)C(=O)N[C@@H](Cc4ccc(O)cc4)C(=O)N[C@H](C(=O)N[C@@H](Cc4ccccc4)C(N)=O)C(C)C)NC(=O)[C@H](Cc4c[nH]c5ccccc45)NC(=O)[C@H](CCCNC(=N)N)NC(=O)[C@H](Cc4c[nH]cn4)NC(=O)[C@H]([C@@H](C)O)NC(=O)[C@H](CCCNC(=N)N)NC(=O)[C@H](CO)NC(=O)[C@H](CSSC[C@H](NC(=O)[C@H](CCCCN)NC(=O)[C@H](CCCNC(=N)N)NC(=O)[C@H](CC(C)C)NC1=O)C(=O)N[C@@H]([C@@H](C)CC)C(=O)N1CCC[C@H]1C(=O)N[C@@H](CC(=O)O)C(=O)N[C@@H](CC)C(=O)N[C@@H](CC(=O)O)C(=O)N[C@@H](CCCCN)C(=O)N3)NC(=O)[C@H](C(C)C)NC(=O)[C@H](CC(C)C)NC(=O)[C@H](CC(N)=O)NC(=O)[C@@H]1CCCN1C(=O)[C@H](CCCNC(=N)N)NC2=O ({Biotin-Ahx}-DCLG[Abu]LRKCIPD[Abu]DKCCRPNLVCSRTHRWCKYVF-NH2; disulfide 2-17, 9-23, 16-30) | 2482 | >909 |  |  |  |  |
| CC[C@H](C)[C@@H]1NC(=O)[C@@H]2CSSC[C@@H]3NC(=O)[C@H](C(C)C)NC(=O)[C@H](CC(C)C)NC(=O)[C@H](CC(N)=O)NC(=O)[C@@H]4CCCN4C(=O)[C@H](CCCNC(=N)N)NC(=O)[C@H](CSSC[C@H](NC(=O)[C@@H](N)CC(=O)O)C(=O)N[C@@H](CC(C)C)C(=O)N[C@@H](CCCCN)C(=O)N[C@@H](Cc4ccccc4)C(=O)N[C@@H](CCSC)C(=O)N[C@@H](CCCNC(=N)N)C(=O)N[C@@H](CCCCN)C(=O)N2)NC(=O)[C@H](CSSC[C@@H](C(=O)N[C@@H](CCCCN)C(=O)N[C@@H](Cc2ccc(O)cc2)C(=O)N[C@H](C(=O)N[C@@H](Cc2ccccc2)C(N)=O)C(C)C)NC(=O)[C@H](Cc2c[nH]c4ccccc24)NC(=O)[C@H](CCCCN)NC(=O)[C@H](Cc2c[nH]cn2)NC(=O)[C@H]([C@@H](C)O)NC(=O)[C@H](CCCNC(=N)N)NC(=O)[C@H](CO)NC3=O)NC(=O)[C@H](CCCCN)NC(=O)[C@H](CC(=O)O)NC(=O)[C@H](CC(N)=O)NC(=O)[C@H](CC(=O)O)NC(=O)[C@@H]2CCCN2C1=O [SEQ ID NO: 39] (H-DCLKFMRKCIPDNDKCCRPNLVCSRTHKWCKYVF-NH2; disulfide 2-17, 9-23, 16-30) |  |  | 0.006 µM |  |  |  |
| CC[C@H](C)[C@@H]1NC(=O)[C@@H]2CSSC[C@@H]3NC(=O)[C@H](C(C)C)NC(=O)[C@H](CC(C)C)NC(=O)[C@H](CC(N)=O)NC(=O)[C@@H]4CCCN4C(=O)[C@H](CCCNC(=N)N)NC(=O)[C@H](CSSC[C@H](NC(=O)[C@@H](N)CC(=O)O)C(=O)N[C@@H](CC(C)C)C(=O)N[C@@H](CCCNC(=N)N)C(=O)N[C@@H](Cc4ccccc4)C(=O)N[C@@H](CCSC)C(=O)N[C@@H](CCCNC(=N)N)C(=O)N[C@@H](CCCCN)C(=O)N2)NC(=O)[C@H](CSSC[C@@H](C(=O)N[C@@H](CCCCN)C(=O)N[C@@H](Cc2ccc(O)cc2)C(=O)N[C@H](C(=O)N[C@@H](Cc2ccccc2)C(N)=O)C(C)C)NC(=O)[C@H](Cc2c[nH]c4ccccc24)NC(=O)[C@H](CCCCN)NC(=O)[C@H](Cc2c[nH]cn2)NC(=O)[C@H]([C@@H](C)O)NC(=O)[C@H](CCCNC(=N)N)NC(=O)[C@H](CO)NC3=O)NC(=O)[C@H](CCCCN)NC(=O)[C@H](CC(=O)O)NC(=O)[C@H](CC(N)=O)NC(=O)[C@H](CC(=O)O)NC(=O)[C@@H]2CCCN2C1=O [SEQ ID NO: 63] (H-DCLRFMRKCIPDNDKCCRPNLVCSRTHKWCKYVF-NH2; disulfide 2-17, 9-23, 16-30) |  |  | 0.003 µM |  |  |  |
| CC[C@H](C)[C@@H]1NC(=O)[C@@H]2CSSC[C@@H]3NC(=O)[C@H](C(C)C)NC(=O)[C@H](CC(C)C)NC(=O)[C@H](CC(N)=O)NC(=O)[C@@H]4CCCN4C(=O)[C@H](CCCNC(=N)N)NC(=O)[C@H](CSSC[C@H](NC(=O)[C@@H](N)CC(=O)O)C(=O)N[C@@H](CC(C)C)C(=O)NCC(=O)N[C@@H](C)C(=O)N[C@@H](CC(C)C)C(=O)N[C@@H](CCCNC(=N)N)C(=O)N[C@@H](CCCCN)C(=O)N2)NC(=O)[C@H](CSSC[C@@H](C(=O)N[C@@H](CCCCN)C(=O)N[C@@H](Cc2ccc(O)cc2)C(=O)N[C@H](C(=O)N[C@@H](Cc2ccccc2)C(=O)O)C(C)C)NC(=O)[C@H](Cc2c[nH]c4ccccc24)NC(=O)[C@H](CCCNC(=N)N)NC(=O)[C@H](Cc2c[nH]cn2)NC(=O)[C@H]([C@@H](C)O)NC(=O)[C@H](CCCNC(=N)N)NC(=O)[C@H](CO)NC3=O)NC(=O)[C@H](CCCCN)NC(=O)[C@H](CC(=O)O)NC(=O)[C@H](CO)NC(=O)[C@H](CC(=O)O)NC(=O)[C@@H]2CCCN2C1=O [compound 871] (H-DCLGALRKCIPDSDKCCRPNLVCSRTHRWCKYVF-OH; disulfide 2-17, 9-23, 16-30) |  |  |  | > 5 µM | > 5 µM | > 5 µM |
| CC[C@H](C)[C@@H]1NC(=O)[C@@H]2CSSC[C@@H]3NC(=O)[C@H](C(C)C)NC(=O)[C@H](CC(C)C)NC(=O)[C@H](CC(N)=O)NC(=O)[C@@H]4CCCN4C(=O)[C@H](CCCNC(=N)N)NC(=O)[C@H](CSSC[C@H](NC(=O)[C@@H](N)CC(=O)O)C(=O)N[C@@H](CC(C)C)C(=O)NCC(=O)N[C@@H](C)C(=O)N[C@@H](CC(C)C)C(=O)N[C@@H](CCCNC(=N)N)C(=O)N[C@@H](CCCCN)C(=O)N2)NC(=O)[C@H](CSSC[C@@H](C(=O)N[C@@H](CCCCN)C(=O)N[C@@H](Cc2ccc(O)cc2)C(=O)N[C@H](C(=O)N[C@@H](Cc2ccccc2)C(=O)O)C(C)C)NC(=O)[C@H](Cc2c[nH]c4ccccc24)NC(=O)[C@H](CCCNC(=N)N)NC(=O)[C@H](Cc2c[nH]cn2)NC(=O)[C@H]([C@@H](C)O)NC(=O)[C@H](CCCNC(=N)N)NC(=O)[C@H](CO)NC3=O)NC(=O)[C@H](CCCCN)NC(=O)[C@H](CC(=O)O)NC(=O)[C@H](C(C)C)NC(=O)[C@H](CC(=O)O)NC(=O)[C@@H]2CCCN2C1=O [compound 872] (H-DCLGALRKCIPDVDKCCRPNLVCSRTHRWCKYVF-OH; disulfide 2-17, 9-23, 16-30) |  |  |  | > 5 µM | > 5 µM | > 5 µM |
| CC[C@H](C)[C@@H]1NC(=O)[C@@H]2CSSC[C@@H]3NC(=O)[C@H](C(C)C)NC(=O)[C@H](CC(C)C)NC(=O)[C@H](CC(N)=O)NC(=O)[C@@H]4CCCN4C(=O)[C@H](CCCNC(=N)N)NC(=O)[C@H](CSSC[C@H](NC(=O)[C@@H](N)CC(=O)O)C(=O)N[C@@H](CC(C)C)C(=O)NCC(=O)N[C@@H](C)C(=O)N[C@@H](CC(C)C)C(=O)N[C@@H](CCCNC(=N)N)C(=O)N[C@@H](CCCCN)C(=O)N2)NC(=O)[C@H](CSSC[C@@H](C(=O)N[C@@H](CCCCN)C(=O)N[C@@H](Cc2ccc(O)cc2)C(=O)N[C@H](C(=O)N[C@@H](Cc2ccccc2)C(=O)O)C(C)C)NC(=O)[C@H](Cc2c[nH]c4ccccc24)NC(=O)[C@H](CCCNC(=N)N)NC(=O)[C@H](Cc2c[nH]cn2)NC(=O)[C@H]([C@@H](C)O)NC(=O)[C@H](CCCNC(=N)N)NC(=O)[C@H](CO)NC3=O)NC(=O)[C@H](CCCCN)NC(=O)[C@H](CC(=O)O)NC(=O)[C@H](Cc2ccc(O)cc2)NC(=O)[C@H](CC(=O)O)NC(=O)[C@@H]2CCCN2C1=O [compound 873] (H-DCLGALRKCIPDYDKCCRPNLVCSRTHRWCKYVF-OH; disulfide 2-17, 9-23, 16-30) |  |  |  | 4.8 µM | > 5 µM | > 5 µM |
